Laboratory results as given in article PMC7011974, “Benzimidazole derivatives endowed with potent antileishmanial activity” (Journal of Enzyme Inhibition and Medicinal Chemistry, 2017).
Several values for one entry are separate records, joined by “and”; a condition that tells them apart may be missing. Equal entries are not always repeated. Where two headings read alike, the source gives them in different places.

Key:
[1] = system: L. donovani (promastigotes); parameters: method as in PMID 20430484, PMID 15183913, PMID 18486471; conditions: Figure 3; cited from earlier work
[2] = system: L. mexicana (promastigotes); parameters: method as in PMID 20430484, PMID 15183913, PMID 18486471; conditions: Figure 3; cited from earlier work
[3] = system: L. mexicana (amastigotes); parameters: method as in PMID 20430484, PMID 15183913, PMID 18486471; conditions: Figure 3; cited from earlier work
[4] = system: human microvascular endothelial cell line (HMEC-1); assay: Cytotoxicity on HMEC-1 cells (MTT); type: cell-based
[5] = system: L. tropica promastigotes; assay: Antileishmanial activity on L. tropica promastigotes (MTT); type: cell-based, Leishmania tropica; conditions: for IC50: Leishmania tropica
[6] = system: L. infantum promastigotes; assay: Antileishmanial activity on L. infantum promastigotes (MTT); type: cell-based, Leishmania infantum; conditions: for IC50: Leishmania infantum
[7] = system: L. major (promastigotes); parameters: method as in PMID 20430484, PMID 15183913, PMID 18486471; conditions: Figure 3; cited from earlier work
[8] = percent of amphotericin B potency, calculated for each experiment

| Structure (SMILES) | IC50 [1] | IC50 [2] | IC50 [3] | IC50 ([4]; Homo sapiens, cytotoxicity, HMEC-1 cells, MTT) | SI L. infantum (IC50 HMEC-1/IC50 L. infantum) ([4]; selectivity index, HMEC-1) | SI L. tropica (IC50 HMEC-1/IC50 L. tropica) ([4]; selectivity index, HMEC-1) | IC50 ([5]; 72 h, promastigotes, MTT, 72 h, starred values mean of two experiments, read-out: IC50 (µM) L. tropica) | IC50 ([5]; range of values across experiments, read-out: IC50 range over many different experiments, L. tropica) | IC50 amph. B ×100/IC50 compd., L. tropica [5, 8] | IC50 ([6]; promastigotes, MTT, 72 h, read-out: IC50 (µM) L. infantum) | IC50 ([6]; range of values across experiments, read-out: IC50 range over many different experiments, L. infantum) | IC50 amph. B ×100/IC50 compd., L. infantum [6, 8] | IC50 [7] |
| --- | --- | --- | --- | --- | --- | --- | --- | --- | --- | --- | --- | --- | --- |
| N=C(N)c1ccc(OCCCCCOc2ccc(C(=N)N)cc2)cc1 [pentamidine] | 2.2 µM and 2.87 µM | 2.42 µM | 9.57 µM | – | – | – | – | – | – | – | – | – | – |
| C[C@@H]1[C@H](O)[C@@H](C)/C=C/C=C/C=C/C=C/C=C/C=C/C=C/[C@H](O[C@@H]2O[C@H](C)[C@@H](O)[C@H](N)[C@@H]2O)C[C@@H]2O[C@](O)(C[C@@H](O)C[C@@H](O)[C@H](O)CC[C@@H](O)C[C@@H](O)CC(=O)O[C@H]1C)C[C@H](O)[C@H]2C(=O)O [Amph. B, amphotericin B, reference compound] | – | – | – | 25.7 ± 1.9 µM | 190.4 | 227.4 | 0.113 ± 0.03 µM | 0.082 to 0.177 µM | 100 | 0.135 ± 0.03 µM | 0.094 to 0.209 µM | 100 | 0.61 µM |
